Patent US20250313555A1, “2-SUBSTITUTED THIAZOLE AND BENZOTHIAZOLE COMPOSITIONS AND METHODS AS DUX4 INHIBITORS” (ALTAY THERAPEUTICS, INC., priority 2022, published 2025)

How the values were obtained:
Assay type in all cases: cell-based
[1] = Cell cytotoxicity 50 assay (CC50), HEK cells; details: human
Description: (§1) Cell Cytotoxicity 50 Assay Protocol (CC50) Into a deep well block (DWB), the media for the appropriate cell line (450 μL/well) was added into wells 1-10. Into DWB well 2, 10 mM of drug solution (13.5 μL) was added, followed by an additional volume of the medium (225 μL). The well was pipetted up/down four times. A portion (225 μL) was transferred to well 3, and this process was repeated up to well 10. Using a multichannel pipet, a smaller portion (50 μL/well) was removed from all wells in the DWB and then dispensed on top of the cells in each corresponding row. After adding the drug, the plate was incubated at 37° C. for 72 h. Using a multi-channel pipet, pre-warmed cell titer glo reagent (Promega) (100 μL) was added into every well. After 5 minutes, the total luminescence was measured with a luminometer. CC50 was determined with GraphPad prism template.

MBD3L2 RNA = test: RNA isolation and qPCR to determine MBD3L2 RNA levels in FSHD cells; details: 48 hrs
Description: Protocol for RNA Isolation and qPCR to Determine MBD3L2 RNA Levels The protocol describes the process of isolating RNA from cultured cells, converting the RNA to complementary DNA (cDNA), and measuring target gene expression using a quantitative polymerase chain reaction (qPCR). The seed FSHD cells were dispensed into a six-well dish. One day after seeding, the DUX4 inhibitor (11 μM or 3.6 μM/well) was added to the cells. After another 48 hrs, the old media was removed from the cells. The cells were washed with 2 mL of warm phosphate buffered saline (PBS). The PBS was aspirated, and the cells were lysed in each well with 350 μL of RLT buffer+3.5 μL of beta-mercaptoethanol (BME). The lysates were added to fresh, RNAse-free, labeled Eppendorf tubes. The cells were then physically disrupted for […] at level 4 of the bead disrupter to ensure the release of the RNA. The RNA was collected according to standard procedures (i.e., Qiagen kit instructions) as discussed below. The RNA concentrations were standardized to […]. In a PCR tube, RNA (2 μg) in a new Eppendorf tube was diluted with RNase-free water to a 9.5 μL final volume of […] RNA. DNase was used to remove any DNA contamination. A DNase Master Mix was prepared from 1.5 μL/reaction DNase solution (1 unit/μL, Promega), 3 μL/reaction 5× RT buffer (i.e., 250 mM Tris-HCl (pH 8.3), 375 mM KCl, 15 mM MgCl2, and 500 μl 0.1 M DTT; Promega MMLV), and 1 μL/reaction RNase inhibitor solution (RNasin, 40 units/μL, Promega). The DNase Master Mix was added to the standardized RNA samples (5.5 μL/sample). The samples were mixed by agitation and briefly spun down by centrifuge. The samples were heated to 37° C. for 60 min, 80° C. for 5 min, and then cooled to 4° C. The samples were stored on ice until the addition of the next reagents. An RT Reaction Master Mix was prepared from 5 μL/reaction 5× RT buffer, 2 μL/reaction dNTP solution (2.5 mM in each nucleotide), 1 μL/reaction RNase inhibitor solution (RNasin, 40 units/μL, Promega), 1.6 μL/reaction M-MLV reverse transcriptase (200 units/μL, Promega), and 13.4 μL/reaction deionized, RNase-free water. The RT Reaction Master Mix was cooled on ice until use. A 50 μM solution of Random Primer 6 random hexanucleotides (2 μL) was added to each sample. The samples were mixed by agitation and briefly spun down by centrifuge. The samples were heated to 70° C. for 5 min and then cooled to 4° C. The RT Reaction Master Mix (23 μL) was added to each sample. The samples were mixed by agitation and briefly spun down by centrifuge. To convert the RNA to cDNA, the samples were heated to 42° C. for 60 min, 95° C. for 5 min, and then cooled to 4° C. The cDNA product mixture was diluted 5:1 with deionized water (40 μL+160 μL). The samples were run in triplicate, with a methyl-CpG-binding protein 3-like 2 (MBD3L2) target primer and a eukaryotic translation elongation factor 1-alpha (EEF1A) control primer. An qPCR Master Mix was prepared for each primer and stored on ice (4° C.) until use. The qPCR Master Mix included 10 μL/reaction SYBR Green Mix (2×) (ThermoFisher), 1 μL/reaction of the primer mix (i.e., the MBD3L2 PCR Primer mix or the EEF1A Primer mix), and 4 μL/reaction deionized, RNase-free water. To set up the qPCR plate, 15 μL of the appropriate qPCR Master Mix was added to the appropriate wells for each target/primer. After all the targets/primers have been added to the wells, 5 μL of the sample was added to the corresponding wells so that each well is 20 μL total. The plate was covered with a clear sheet. An qPCR run was set up (QuantStudio 5) with the following cycle: […]

[2] = Cell cytotoxicity 50 assay (CC50), MB200 cells, cell titer glo; details: human
Description: as §1, with “(CC50) MB200 cells were grown until 80% confluent in F10 media supplemented with rhFGF basic (10 ng/ml), 15% fetal bovine serum, 1% penicillin streptomycin, 1% amphotericin B, and 1 μM dexamethasone. Adherent MB200 cells growing on 10 cm plate were then trypsinized with 1 ml of trypsin. Once the cells detached from the plate, F10 media (10 mL) was added, and the cells were strained through a 70 μm cell strainer. The cells were counted using a mixture of 10 μL cell suspension with 10 μL of trypan blue. Once the total number of cells were counted, a dilution of 200 k/mL was prepared, and the cells were seeded with 10 k cells/well in a 96-well plate in triplicate, making sure to avoid seeding cells in the edges of the plate to avoid edge effects. Using a multichannel pipet, the 200 k/mL cell dilution (50 μL/well) was added into wells B2-B11, C2-C11, and D2-D11 in triplicate.” for “(CC50)”

SMILES | CC50 at 72 h [1] | qPCR MBD3L2 Inhib at 11 µM (MBD3L2 RNA) | CC50 at 72 h [2]
O=C(CC1CCCC1)Nc1ccc(-c2nc3ccccc3s2)cc1 [Compound 21] | > 10 µM | YES | > 10 µM
O=C(CCc1cn[nH]c1)Nc1ccc(-c2nc3ccccc3s2)cc1 [Compound 27] | > 10 µM | YES | > 10 µM
Cc1ccc2nc(-c3ccc(NC(=O)C4CCC4)cc3)sc2c1 [Compound 29] | > 10 µM | YES | 1 to 10 µM
CC(=O)NCCNC(=O)c1ccc(-c2nc3cc(F)ccc3s2)cc1 [Compound 30] | > 10 µM | YES | > 10 µM
CC(C)C(=O)NCCCC(=O)Nc1ccc(-c2nc3ccccc3s2)cc1 [Compound 31] | > 10 µM | YES | > 10 µM
CC(=O)NCCCC(=O)Nc1ccc(-c2nc3ccccc3s2)nc1 [Compound 32] | > 10 µM | YES | > 10 µM
O=C(CCc1cnco1)Nc1ccc(-c2nc3ccccc3s2)cc1 [Compound 33] | > 10 µM | YES | > 10 µM
CN(C(=O)CCN1C(=O)CCC1=O)c1ccc(-c2nc3ccccc3s2)cc1 [Compound 34] | > 10 µM | YES | > 10 µM
CC(=O)OCCCC(=O)Nc1ccc(-c2nc3ccc(C)cc3s2)cc1 [Compound 36] | 1 to 10 µM | YES | > 10 µM
O=C(CCN1C(=O)CCC1=O)Nc1ccc(-c2nc3ccccc3s2)nc1 [Compound 37] | > 10 µM | YES | > 10 µM
CC(=O)NCCC(=O)Nc1ccc(-c2nc3ccccc3s2)cc1 [Compound 38] | > 10 µM | YES | > 10 µM
O=C(CCc1nnc[nH]1)Nc1ccc(-c2nc3ccccc3s2)cc1 [Compound 39] | > 10 µM | YES | > 10 µM
O=C(CCc1cnn[nH]1)Nc1ccc(-c2nc3ccccc3s2)cc1 [Compound 40] | > 10 µM | YES | > 10 µM
O=C(CCCN1C(=O)CCC1=O)Nc1ccc(-c2nc3ccccc3s2)cc1 [Compound 41] | > 10 µM | YES | > 10 µM
CC(=O)NCCC(=O)Nc1ccc(-c2nc3cc(F)ccc3s2)cc1 [Compound 44] | > 10 µM | YES | > 10 µM
O=C(CCCN1C(=O)CCC1=O)NC1CC=C(c2nc3ccccc3s2)CC1 (stereo not drawn) [Compound 46] | > 10 µM | YES | > 10 µM
CC(=O)NCCCC(=O)Nc1ccc(-c2nc3ccccc3s2)cn1 [Compound 49] | > 10 µM | YES | > 10 µM

SMILES | CC50 at 72 h [1] | qPCR MBD3L2 Inhib at 11 µM (MBD3L2 RNA) | CC50 at 72 h [2]
O=C(CCCc1cccnc1)Nc1ccc(-c2nc3ccccc3s2)cc1 [Compound 52] | > 10 µM | YES | > 10 µM
CC(=O)NCCC(=O)Nc1ccc(-c2nc3cc(C)ccc3s2)cc1 [Compound 53] | > 10 µM | YES | > 10 µM
N#Cc1ccc2nc(-c3ccc(NC(=O)CCN4C(=O)CCC4=O)cc3)sc2c1 [Compound 54] | > 10 µM | YES | 1 to 10 µM
O=C(CCc1cncnc1)Nc1ccc(-c2nc3ccccc3s2)cc1 [Compound 55] | > 10 µM | YES | > 10 µM
CC(=O)NC(C)CCC(=O)Nc1ccc(-c2nc3ccccc3s2)cc1 (stereo not drawn) [Compound 56] | > 10 µM | YES | > 10 µM
CC(=O)NCCCC(=O)Nc1cnc(-c2nc3ccccc3s2)nc1 [Compound 59] | > 10 µM | YES | > 10 µM
O=C(CCCc1cccnc1)Nc1ccc(Cc2nc3ccccc3s2)cc1 [Compound 60] | > 10 µM | YES | > 10 µM
O=C(CCCc1cccnc1)NC1CCC(c2nc3ccccc3s2)CC1 (stereo not drawn) [Compound 61] | > 10 µM | YES | > 10 µM
O=C(CCCc1cccnc1)Nc1coc(-c2nc3ccccc3s2)c1 [Compound 62] | > 10 µM | YES | > 10 µM
O=C(CCCc1cnco1)Nc1ccc(-c2nc3cc(F)ccc3s2)cc1 [Compound 64] | 1 to 10 µM | YES | > 10 µM
O=C(CCc1cnco1)Nc1ccc(-c2nc3cc(F)ccc3s2)cc1 [Compound 65] | > 10 µM | YES | > 10 µM
O=C(CCCc1cnco1)NC1CCC(c2nc3ccccc3s2)CC1 (stereo not drawn) [Compound 67] | > 10 µM | YES | > 10 µM
CC(=O)NCCCCC(=O)Nc1ccc(-c2nc3ccccc3s2)cc1 [Compound 73] | > 10 µM | YES | > 10 µM
CC(=O)NCCCNC(=O)c1ccc(-c2nc3cc(F)ccc3s2)cc1 [Compound 74] | > 10 µM | YES | > 10 µM
O=C(CCCc1cccnc1)Nc1ccc(-c2nc3ccccc3s2)o1 [Compound 75] | > 10 µM | YES | > 10 µM
CC(=O)NCCCC(=O)Nc1ccc(-c2nc3ccccc3s2)o1 [Compound 76] | > 10 µM | YES | > 10 µM
